Data: patent US20120122860A1, “SOLID FORMS OF SULFONAMIDES AND AMINO ACIDS” (Plexxikon, Inc., priority 2009, published 2012)

Assays:
[1] = biological target: MAP4K4 (Homo sapiens, UniProt O95819); test: Kinase activity assay, MAP4K4
[2] = biological target: B-Raf (Homo sapiens, UniProt P15056); test: Kinase activity assay, B-Raf; format: biochemical; conditions: read-out: activity toward kinase B-Raf, IC50
[3] = biological target: Kit (Homo sapiens, UniProt P10721); test: Kinase activity assay, Kit
[4] = biological target: Fms (Homo sapiens, UniProt P07333); test: Kinase activity assay, Fms
Chain of Fms (P07333 20-972): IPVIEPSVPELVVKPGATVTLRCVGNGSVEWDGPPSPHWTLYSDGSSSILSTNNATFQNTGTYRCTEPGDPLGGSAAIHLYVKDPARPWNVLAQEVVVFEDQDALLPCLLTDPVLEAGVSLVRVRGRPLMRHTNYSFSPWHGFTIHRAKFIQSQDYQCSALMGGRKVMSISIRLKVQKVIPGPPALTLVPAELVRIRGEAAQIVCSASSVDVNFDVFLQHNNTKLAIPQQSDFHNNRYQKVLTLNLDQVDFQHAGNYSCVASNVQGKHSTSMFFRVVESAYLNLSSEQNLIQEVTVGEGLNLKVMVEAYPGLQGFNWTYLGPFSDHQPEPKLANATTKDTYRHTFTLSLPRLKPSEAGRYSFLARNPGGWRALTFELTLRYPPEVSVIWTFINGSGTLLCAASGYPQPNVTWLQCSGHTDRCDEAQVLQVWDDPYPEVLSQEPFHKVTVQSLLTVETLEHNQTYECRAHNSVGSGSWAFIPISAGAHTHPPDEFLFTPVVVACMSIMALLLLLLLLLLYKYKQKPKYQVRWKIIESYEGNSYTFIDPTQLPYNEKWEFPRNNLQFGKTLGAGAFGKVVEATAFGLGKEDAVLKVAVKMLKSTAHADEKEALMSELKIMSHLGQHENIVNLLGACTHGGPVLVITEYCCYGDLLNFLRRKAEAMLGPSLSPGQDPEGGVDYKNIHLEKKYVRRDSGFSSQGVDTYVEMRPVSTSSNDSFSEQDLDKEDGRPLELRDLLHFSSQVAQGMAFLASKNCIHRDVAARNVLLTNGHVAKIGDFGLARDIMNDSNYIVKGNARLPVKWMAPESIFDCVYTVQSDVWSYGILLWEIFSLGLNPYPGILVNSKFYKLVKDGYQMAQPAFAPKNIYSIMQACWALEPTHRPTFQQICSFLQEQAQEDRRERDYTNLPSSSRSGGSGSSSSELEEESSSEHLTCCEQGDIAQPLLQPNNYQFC

[5] = biological target: C-Raf (Homo sapiens, UniProt P04049); test: Kinase activity assay, C-Raf
Chain of C-Raf (P04049 whole entry): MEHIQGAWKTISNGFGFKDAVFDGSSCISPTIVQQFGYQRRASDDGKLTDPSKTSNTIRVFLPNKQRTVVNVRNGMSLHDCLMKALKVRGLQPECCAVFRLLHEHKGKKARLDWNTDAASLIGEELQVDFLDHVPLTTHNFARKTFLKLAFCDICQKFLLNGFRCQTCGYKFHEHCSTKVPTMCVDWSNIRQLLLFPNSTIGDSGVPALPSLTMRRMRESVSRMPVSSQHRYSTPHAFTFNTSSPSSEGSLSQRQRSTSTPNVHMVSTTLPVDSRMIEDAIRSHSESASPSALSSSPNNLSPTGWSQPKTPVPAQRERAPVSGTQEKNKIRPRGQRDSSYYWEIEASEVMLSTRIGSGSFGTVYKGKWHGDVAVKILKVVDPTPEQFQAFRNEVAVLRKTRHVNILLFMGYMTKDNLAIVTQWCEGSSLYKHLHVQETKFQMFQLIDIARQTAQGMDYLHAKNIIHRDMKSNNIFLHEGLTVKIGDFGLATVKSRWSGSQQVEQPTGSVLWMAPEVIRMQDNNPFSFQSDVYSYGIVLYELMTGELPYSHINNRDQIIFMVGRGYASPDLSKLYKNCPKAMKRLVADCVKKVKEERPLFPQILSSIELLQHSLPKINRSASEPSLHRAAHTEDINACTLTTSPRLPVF

[6] = biological target: B-Raf V600E (Homo sapiens, UniProt P15056, V600E); test: Kinase activity assay, B-Raf V600E; format: biochemical; conditions: read-out: activity toward kinase B-Raf V600E, IC50
Chain of B-Raf V600E (P15056 whole entry V600E): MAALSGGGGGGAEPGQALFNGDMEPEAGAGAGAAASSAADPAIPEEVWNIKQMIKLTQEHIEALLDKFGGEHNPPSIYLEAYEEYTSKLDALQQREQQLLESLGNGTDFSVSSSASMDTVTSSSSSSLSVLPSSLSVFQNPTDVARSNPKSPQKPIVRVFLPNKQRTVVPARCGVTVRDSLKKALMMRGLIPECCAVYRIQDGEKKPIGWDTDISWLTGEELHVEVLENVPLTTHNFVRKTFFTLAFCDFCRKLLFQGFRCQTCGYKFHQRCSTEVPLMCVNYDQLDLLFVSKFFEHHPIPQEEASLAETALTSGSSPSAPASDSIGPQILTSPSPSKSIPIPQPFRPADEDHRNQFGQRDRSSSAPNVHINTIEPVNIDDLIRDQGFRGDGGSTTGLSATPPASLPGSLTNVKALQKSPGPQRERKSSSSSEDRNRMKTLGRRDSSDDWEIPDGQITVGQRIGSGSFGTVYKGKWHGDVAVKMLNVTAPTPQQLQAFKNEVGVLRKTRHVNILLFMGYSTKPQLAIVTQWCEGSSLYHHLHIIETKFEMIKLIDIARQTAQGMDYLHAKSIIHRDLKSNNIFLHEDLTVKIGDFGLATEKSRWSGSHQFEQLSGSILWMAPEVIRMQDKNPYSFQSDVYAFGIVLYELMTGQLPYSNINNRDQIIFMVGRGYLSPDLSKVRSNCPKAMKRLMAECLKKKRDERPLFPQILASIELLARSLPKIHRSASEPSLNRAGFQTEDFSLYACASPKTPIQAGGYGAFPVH

[7] = biological target: Kdr (Homo sapiens, UniProt P35968); test: Kinase activity assay, Kdr
[8] = biological target: Src (Homo sapiens, UniProt P12931); test: Kinase activity assay, Src
Chain of Src (P12931 whole entry): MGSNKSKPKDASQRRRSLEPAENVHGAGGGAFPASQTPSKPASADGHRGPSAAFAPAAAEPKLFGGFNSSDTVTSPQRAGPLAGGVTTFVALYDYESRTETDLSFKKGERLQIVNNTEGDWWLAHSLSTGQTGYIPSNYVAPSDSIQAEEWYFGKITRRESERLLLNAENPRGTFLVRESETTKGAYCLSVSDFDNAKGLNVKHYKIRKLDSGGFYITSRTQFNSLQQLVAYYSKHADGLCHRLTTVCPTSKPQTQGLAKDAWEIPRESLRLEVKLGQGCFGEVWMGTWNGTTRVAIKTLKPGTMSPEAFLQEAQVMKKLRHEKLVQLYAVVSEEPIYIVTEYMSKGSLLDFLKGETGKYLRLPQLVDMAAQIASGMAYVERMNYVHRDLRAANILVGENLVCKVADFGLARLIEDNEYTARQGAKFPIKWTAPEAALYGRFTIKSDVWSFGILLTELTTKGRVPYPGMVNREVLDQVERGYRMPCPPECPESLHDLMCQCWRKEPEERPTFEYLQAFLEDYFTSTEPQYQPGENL

Measured: IC50

Chain of MAP4K4 (O95819 whole entry): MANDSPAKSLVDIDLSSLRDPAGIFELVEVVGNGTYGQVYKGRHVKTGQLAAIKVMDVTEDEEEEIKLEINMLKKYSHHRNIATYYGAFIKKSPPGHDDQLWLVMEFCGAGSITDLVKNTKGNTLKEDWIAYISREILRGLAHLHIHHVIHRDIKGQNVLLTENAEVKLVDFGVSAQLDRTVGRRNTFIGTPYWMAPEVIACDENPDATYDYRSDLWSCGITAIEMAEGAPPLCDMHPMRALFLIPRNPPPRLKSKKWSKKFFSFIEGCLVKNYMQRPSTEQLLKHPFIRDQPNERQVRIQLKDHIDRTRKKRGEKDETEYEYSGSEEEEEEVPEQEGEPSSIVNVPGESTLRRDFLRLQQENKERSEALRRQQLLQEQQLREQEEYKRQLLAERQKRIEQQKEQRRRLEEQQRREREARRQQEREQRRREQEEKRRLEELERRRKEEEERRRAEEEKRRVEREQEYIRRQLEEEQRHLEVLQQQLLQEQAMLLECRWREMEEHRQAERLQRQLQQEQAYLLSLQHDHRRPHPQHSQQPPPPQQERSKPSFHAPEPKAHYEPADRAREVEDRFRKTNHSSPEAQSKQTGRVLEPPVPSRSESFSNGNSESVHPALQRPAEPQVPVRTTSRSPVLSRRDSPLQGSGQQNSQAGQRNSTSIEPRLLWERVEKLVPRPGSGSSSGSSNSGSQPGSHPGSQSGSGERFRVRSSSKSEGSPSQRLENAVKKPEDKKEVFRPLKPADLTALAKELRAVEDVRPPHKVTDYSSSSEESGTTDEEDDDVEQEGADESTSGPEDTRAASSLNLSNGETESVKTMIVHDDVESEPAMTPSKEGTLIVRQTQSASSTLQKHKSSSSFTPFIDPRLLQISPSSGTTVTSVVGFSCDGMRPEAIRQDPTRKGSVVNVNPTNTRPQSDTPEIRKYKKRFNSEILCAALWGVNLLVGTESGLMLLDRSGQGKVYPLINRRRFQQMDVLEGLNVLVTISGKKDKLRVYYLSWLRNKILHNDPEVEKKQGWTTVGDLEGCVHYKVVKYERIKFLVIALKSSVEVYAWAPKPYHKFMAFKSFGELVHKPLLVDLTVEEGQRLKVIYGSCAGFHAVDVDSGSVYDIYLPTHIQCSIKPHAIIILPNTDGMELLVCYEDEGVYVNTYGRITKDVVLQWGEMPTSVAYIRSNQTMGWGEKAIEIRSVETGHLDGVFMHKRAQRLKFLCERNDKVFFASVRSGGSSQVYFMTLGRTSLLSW
Chain of B-Raf (P15056 whole entry): as the sequence (P15056 whole entry V600E) above, with E600V counted along it

O=C(CCCCC1SCC2NC(=O)NC21)NCCCCCNC(=O)CCc1cnc2[nH]cc(C(=O)c3c(F)ccc(NS(=O)(=O)c4ccc(C(F)(F)F)cc4)c3F)c2c1 (centres unmarked) [P-2008, 5-(2-Oxo-hexahydro-thieno[3,4-d]imidazol-6-yl)-pentanoic acid [5-(3-{3-[2,6-difluoro-3-(4-trifluoromethyl-benzenesulfonylamino)-benzoyl]-1H-pyrrolo[2,3-b]pyridin-5-yl}-propionylamino)-pentyl]-amide]
not listed: [8]
≤ 10 µM: all other assays above

Cc1cnc2[nH]cc(C(=O)c3c(F)ccc(NS(=O)(=O)c4ccc(F)cc4F)c3F)c2c1 [P-2025, N-[2,4-Difluoro-3-(5-methyl-1H-pyrrolo[2,3-b]pyridine-3-carbonyl)-phenyl]-2,4-difluoro-benzenesulfonamide]
not listed: [4]
≤ 10 µM: all other assays above

O=C(c1c(F)ccc(NS(=O)(=O)c2ccc(F)cc2)c1F)c1c[nH]c2nccc(Cl)c12 [P-2026, N-[3-(4-Chloro-1H-pyrrolo[2,3-b]pyridine-3-carbonyl)-2,4-difluoro-phenyl]-4-fluoro-benzenesulfonamide]
not listed: [4]
≤ 10 µM: all other assays above

O=C(c1c(F)ccc(NS(=O)(=O)c2c(F)cccc2F)c1F)c1c[nH]c2nccc(Cl)c12 [P-2033, N-[3-(4-Chloro-1H-pyrrolo[2,3-b]pyridine-3-carbonyl)-2,4-difluoro-phenyl]-2,6-difluoro-benzenesulfonamide]
not listed: [4]
≤ 10 µM: all other assays above

O=C(c1c(F)ccc(NS(=O)(=O)c2ccc(F)cc2F)c1F)c1c[nH]c2nccc(Cl)c12 [P-2034, N-[3-(4-Chloro-1H-pyrrolo[2,3-b]pyridine-3-carbonyl)-2,4-difluoro-phenyl]-2,4-difluoro-benzenesulfonamide]
not listed: [4]
≤ 10 µM: all other assays above

O=C(c1c(F)ccc(NS(=O)(=O)c2cccnc2)c1F)c1c[nH]c2nccc(Cl)c12 [P-2074, Pyridine-3-sulfonic acid [3-(4-chloro-1H-pyrrolo[2,3-b]pyridine-3-carbonyl)-2,4-difluoro-phenyl]-amide]
≤ 10 µM: [1] | [8]

Cc1cnc2[nH]cc(C(=O)c3cc(NS(=O)(=O)c4cccnc4)ccc3F)c2c1 [P-2137, Pyridine-3-sulfonic acid [4-fluoro-3-(5-methyl-1H-pyrrolo[2,3-b]pyridine-3-carbonyl)-phenyl]-amide]
≤ 10 µM: [1] | [4] | [8] | [7]

Cc1cnc2[nH]cc(C(=O)c3cccc(NS(=O)(=O)c4cccnc4)c3)c2c1 [P-2141, Pyridine-3-sulfonic acid [3-(5-methyl-1H-pyrrolo[2,3-b]pyridine-3-carbonyl)-phenyl]-amide]
≤ 10 µM: [1] | [3] | [4] | [7]

O=C(c1cccc(NS(=O)(=O)c2cccnc2)c1)c1c[nH]c2ncc(F)cc12 [P-2143, Pyridine-3-sulfonic acid [3-(5-fluoro-1H-pyrrolo[2,3-b]pyridine-3-carbonyl)-phenyl]-amide]
≤ 10 µM: [1] | [4] | [5] | [7]

CCCS(=O)(=O)Nc1ccc(F)c(C(=O)c2c[nH]c3ncc(-c4cnc(C)nc4)cc23)c1F [P-2211, Propane-1-sulfonic acid {2,4-difluoro-3-[5-(2-methyl-pyrimidin-5-yl)-1H-pyrrolo[2,3-b]pyridine-3-carbonyl]-phenyl}-amide]
not listed: [3]
≤ 10 µM: all other assays above

CCCS(=O)(=O)Nc1ccc(F)c(C(=O)c2c[nH]c3ncc(-c4cnc(N5CCCC5)nc4)cc23)c1F [P-2219, Propane-1-sulfonic acid {2,4-difluoro-3-[5-(2-pyrrolidin-1-yl-pyrimidin-5-yl)-1H-pyrrolo[2,3-b]pyridine-3-carbonyl]-phenyl}-amide]
not listed: [3] | [4]
≤ 10 µM: all other assays above

CCCS(=O)(=O)Nc1ccc(F)c(C(=O)c2c[nH]c3ncc(-c4ccc(S(=O)(=O)NCCO)cc4)cc23)c1F [P-2221, 4-{3-[2,6-Difluoro-3-(propane-1-sulfonylamino)-benzoyl]-1H-pyrrolo[2,3-b]pyridin-5-yl}-N-(2-hydroxy-ethyl)-benzenesulfonamide]
≤ 10 µM: [1] | [3] | [4] | [7]

CCCS(=O)(=O)Nc1ccc(F)c(C(=O)c2c[nH]c3ncc(-c4ccc(S(=O)(=O)C(C)C)cc4)cc23)c1F [P-2223, Propane-1-sulfonic acid (2,4-difluoro-3-{5-[4-(propane-2-sulfonyl)-phenyl]-1H-pyrrolo[2,3-b]pyridine-3-carbonyl}-phenyl)-amide]
not listed: [4]
≤ 10 µM: all other assays above

CCCS(=O)(=O)Nc1ccc(F)c(C(=O)c2c[nH]c3ncc(-c4nn[nH]n4)cc23)c1F [P-2242, Propane-1-sulfonic acid {2,4-difluoro-3-[5-(2H-tetrazol-5-yl)-1H-pyrrolo[2,3-b]pyridine-3-carbonyl]-phenyl}-amide]
≤ 10 µM: [1] | [3] | [4] | [8] | [7]

CCS(=O)(=O)Nc1ccc(F)c(C(=O)c2c[nH]c3ncc(-c4ccc(Cl)cc4)cc23)c1F [P-2269, Ethanesulfonic acid {3-[5-(4-chloro-phenyl)-1H-pyrrolo[2,3-b]pyridine-3-carbonyl]-2,4-difluoro-phenyl}-amide]
≤ 10 µM: [1] | [7]

CCS(=O)(=O)Nc1ccc(F)c(C(=O)c2c[nH]c3nccc(OC)c23)c1F [P-2279, Ethanesulfonic acid [2,4-difluoro-3-(4-methoxy-1H-pyrrolo[2,3-b]pyridine-3-carbonyl)-phenyl]-amide]
≤ 10 µM: [1] | [2] | [5] | [6] | [7]

CCCCS(=O)(=O)Nc1ccc(F)c(C(=O)c2c[nH]c3ncc(-c4ccc(Cl)cc4)cc23)c1F [P-2300, Butane-1-sulfonic acid {3-[5-(4-chloro-phenyl)-1H-pyrrolo[2,3-b]pyridine-3-carbonyl]-2,4-difluoro-phenyl}-amide]
≤ 10 µM: [1] | [3] | [4] | [8] | [7]

Cc1cnc2[nH]cc(C(=O)c3c(F)ccc(NS(=O)(=O)C4CCCCC4)c3F)c2c1 [P-2360, Cyclohexanesulfonic acid [2,4-difluoro-3-(5-methyl-1H-pyrrolo[2,3-b]pyridine-3-carbonyl)-phenyl]-amide]
not listed: [4]
≤ 10 µM: all other assays above

O=C(c1cccc(NS(=O)(=O)C2CCCCC2)c1)c1c[nH]c2ncc(Cl)cc12 [P-2452, Cyclohexanesulfonic acid [3-(5-chloro-1H-pyrrolo[2,3-b]pyridine-3-carbonyl)-phenyl]-amide]
≤ 10 µM: [1] | [3] | [4] | [6] | [7]

O=C(c1cccc(NS(=O)(=O)C2CCCC2)c1)c1c[nH]c2ncc(Cl)cc12 [P-2453, Cyclopentanesulfonic acid [3-(5-chloro-1H-pyrrolo[2,3-b]pyridine-3-carbonyl)-phenyl]-amide]
≤ 10 µM: [1] | [3] | [4] | [6] | [7]

Cc1cnc2[nH]cc(C(=O)c3cccc(NS(=O)(=O)C4CCCCC4)c3)c2c1 [P-2458, Cyclohexanesulfonic acid [3-(5-methyl-1H-pyrrolo[2,3-b]pyridine-3-carbonyl)-phenyl]-amide]
≤ 10 µM: [1] | [3] | [4] | [7]

Cc1cnc2[nH]cc(C(=O)c3cccc(NS(=O)(=O)C4CCCC4)c3)c2c1 [P-2459, Cyclopentanesulfonic acid [3-(5-methyl-1H-pyrrolo[2,3-b]pyridine-3-carbonyl)-phenyl]-amide]
≤ 10 µM: [1] | [3] | [7]

O=C(O)CCc1cccc(-c2cnc3[nH]cc(C(=O)c4cccc(NS(=O)(=O)C5CCCC5)c4)c3c2)c1 [P-2466, 3-{3-[3-(3-Cyclopentanesulfonylamino-benzoyl)-1H-pyrrolo[2,3-b]pyridin-5-yl]-phenyl}-propionic acid]
≤ 10 µM: [1] | [3] | [6] | [8] | [7]
